Measurements reported in patent US9512138B2, “Compositions and methods for treating cancer” (The Regents of the University of California, priority 2012, dated 2016).
“Also recorded” adds a separate entry of the source. Structures can show the parent of a compound that is named as a salt.

What was measured:
[1] = cited from earlier work
[2] = in vivo; cited from earlier work
[3] = system: A549, H23, H2122 and H1975 NSCLC cells; assay: MTS cell viability/proliferation assay in NSCLC cell lines, 72 h; type: cell-based, human
Protocol: FIG. 5. Parthenolide analogues JD201-JD210 suppress human lung tumor cell proliferation in vitro. A549, H23, H2122 and H1975 NSCLC cells were treated with increasing concentrations of drugs (0.1-100 μM). After 72 h cell viability was assessed by MTS assay. Viable cells are expressed as percentage of vehicle control. P<0.01 (**), versus control group, P<0.05 (*), versus control group. Natural occurring parthenolide (PTL), parthenolide analogues JD201 (DMAPT)-JD210. Parthenolide analogues inhibit female (H1975, H2122) and male (H23, A549) NSCLC cell proliferation.
To determine the effect of parthenolide analogues in lung cancer cell proliferation we tested two male (A549, H23) and two female (H2122, H1975) lung cancer cell lines with increasing concentrations of parthenolide analogues (0.1, 1, 10 and 100 μM) for 72 hours.

[4] = system: NF-κB/p65 phosphorylation; assay: Western blot of phospho-NF-κB/p65 in H23 cells; type: cell-based, human; details: for phosphorylation of the p65 subunit of NF-κB: 10 μM, 60 min (FIG. 7); for phosphorylation of NF-κB/p65: 10 µM, 60 min (FIG. 13)
Protocol: FIG. 7. […] After 60 min Western blot were performed using anti-phospho-NF-κB/p65 antibody (Cell Signaling Technology #3031). Membranes were stripped and re-probed with antibody against total NF-κB/p65 (CST #3037).
After 60 min, Western blots were done using anti-phospho-NFκB/p65 antibody (Cell Signaling).
Upon confirming that parthenolide analogues can inhibit NSCLC cell proliferation, induce cell death and enhance the cytotoxicity of chemotherapy, we began to investigate potential cellular mechanisms that may underlie this process. For example, we used Western Blot methods to determine phosphorylation of the p65 subunit of NF-κB. H23 cells were incubated in the presence of vehicle control or 10 μM concentration of the parthenolide derivatives (JD 201, 202, 203, 204) for 60 min. After treatment, cells were collected and homogenized in lysis buffer. Extracts were electrophoresed on 4-20% gradient SDS-PAGE gels and transferred to nitrocellulose membranes. Blots were probed with anti-phospho-NF-κB/p65 and NF-κB/p65 for a loading control.

MCF-7/HER2 cells = assay: MCF-7/HER2 xenografts in nude mice; type: in vivo
Text: (§1) Conversion of estrogen-sensitive to -resistant tumors after the start of antiestrogen therapy is a major problem in the clinic (65). This resistance may be due, in part, to enhanced growth factor signaling, a cellular response to antiestrogen treatment that eventually results in increased phosphorylation of ER and/or coactivators, such as AIB1(54). Convergence between growth factor and estrogen signaling may elicit a synergistic feed-forward circuit with more robust cell growth (FIG. 10). It is notable that tumors with HER-2 overexpression tend to respond poorly to antiestrogens (69-72). […] Such clinical data offer further evidence of the biologic interaction between HER-2 and ER. To evaluate the relation of HER-2 to clinical antiestrogen resistance, we used estrogen-responsive, MCF-7 cells with defined levels of ER that were transfected with HER-2 gene (MCF-7/HER-2). MCF-7 cells+HER-2 overexpression and parent MCF-7 cells were grown as xenografts in nude mice as before (28) (FIGS. 11A-11B).
(§2) FIGS. 11A-11B. Overexpression of HER2 gene in MCF7 cells elicits resistance to endocrine therapy in vivo; FIG. 11A: Antiestrogen sensitivity of MCF7 parent cells without HER2 overexpression (control) in vivo. MCF7 cells were inoculated SQ in ovari-ectomized, nude mice primed with estrogen. […] Tumor volumes were recorded. […]

[5] = system: MCF7 parent cells without HER2 overexpression; assay: MCF-7 parent xenografts in nude mice; type: in vivo; details: 28 d treatment
Text: as §1, §2

[6] = system: MCF-7/TAMR breast cancer cells; assay: Proliferation of tamoxifen-resistant MCF-7/TMR (TAM-R) cells; type: cell-based, human; details: absence of parthenolide analogues
Protocol: MCF-7/CON cells are tamoxifen-sensitive, while MCF-7/HER2 and MCF-7/TMR cells are known to be tamoxifen-resistant (28,61,66,67). Except for TMR (64,68), cells were routinely cultured in RPMI 1640 media with 10% heat-inactivated FBS (28,64,66). For E2-free conditions, media were changed 48 h before studies to phenol-red free RPMI 1640 with 1% dextran-coated, charcoal-treated (DCC) FBS. TMR cells were derived by long-term continuous exposure of cells to 10^−7 M 4-hydroxy-tamoxifen by established methods (64,68) and were maintained with 10^−7 M 4-hydroxytamoxifen in medium. Levels of ERα and HER2 expression in these several cell lines were determined by use of Western blot methods.
Assays for Tumor Cell Proliferation. Breast tumor cells were be grown in RPMI 1640 media with 10% heat-inactivated FBS (except for TMR and TZR cells as noted above). For estrogen-free conditions, medium were changed 48 h before studies to phenol-red free RPMI 1640 with 1% dextran-coated, charcoal-treated (DCC) FBS, then treated with selected reagents. Cell counts and viability tests (Trypan blue) will be done every 24 hr for […]. After 48-72 hr, proliferation was assessed by cell counts.

A549 NSCLC cells = assay: ALDH+/CD133+ cancer stem/progenitor cell subset by Aldefluor/CD133 FACS; type: cell-based, human; details: 10 nM estradiol-17b, P<0.001
Protocol: FIG. 1. Isolation of cancer stem/progenitor cell subsets as determined by assay of specific biomarkers, ALDH and CD133, and effect of estrogen exposure. NSCLC cells (A549) were treated in vitro with control (CON), 10 nM estradiol-17b (E2), or E2 in the presence of […] fulvestrant. Thereafter, aldehyde dehydrogenase (ALDH) activity and CD133 expression were analyzed by established double labeling methods using an Aldefluor Assay Kit and CD133 antibody, respectively, followed by FACS sorting. The numbers of ALDH+/CD133+ lung tumor cells, representing a putative CSC subset, was expressed as a percent of total lung tumor cells for each treatment group. […] Experiments were done in triplicate.
Substantial evidence has accumulated to support the role of a small subset of self-renewing cells that sustain malignant growth. […] Based on these findings, we identified CD133+/ALDH+ tumor stem/progenitor cells from human lung cancer cells in vitro using an Aldefluor assay (to isolate ALDH+ cells) (5,7,8) in combination with labeled anti-CD133 antibodies (3,10) followed by fluorescence-activated cell sorting analysis (11). In brief, ALDH activity and CD133 expression were analyzed by established double labeling methods using the Aldefluor Assay Kit (Stem Cell Technologies) and CD133/1 antibody (Miltenyi) according to the manufacturer's instructions. […] Data were analyzed using FlowJo (Tree Star Inc.). […]

**Q.** For C/C1=C\CC[C@@]2(C)O[C@H]2[C@H]2OC(=O)[C@@H](CN(C)C)[C@@H]2CC1 [JD201, (1aR,7aS,8R,10aS,Z)-8-((Dimethylamino)methyl)-1a,5-dimethyl-2,3,6,7,7a,8,10a,10b-octa-hydrooxireno[2′,3′:9,10]cyclodeca[1,2-b]furan-9(1aH)-one, fumaric acid salt], which plasma concentrations ([1]; after oral administration) is on record?
**A.** The plasma concentrations was 40 µM.

**Q.** What about the oral bioavaliability ([1]; oral) of the same compound?
**A.** Its oral bioavaliability is 70%.

**Q.** What about the toxicology profile [2] of the same compound?
**A.** Its toxicology profile is “acceptable”.

**Q.** Which “growth inhibition at 10 μM” value ([3]; 10 μM, A549, H23, H2122, H1975) does the source give for C/C1=C/CC[C@@]2(C)OC2[C@H]2OC(=O)[C@@H](CNCc3ccccn3)[C@@H]2CC1.O=C(O)/C=C/C(=O)O (stereo partly drawn) [JD202, (1aR,7aS,8R,10aS,Z)-1a,5-Dimethyl-8-(((pyridin-2-ylmethyl)amino)methyl)-2,3,6,7,7a,8, 10a,10b-octahydrooxireno[2′,3′:9,10]cyclodeca[1,2-b]furan-9(1aH)-one, fumaric acid salt] here?
**A.** The value was “Significant growth inhibition”.

**Q.** And the “growth inhibition at 100 μM” value ([3]; A549, H23, H2122, H1975)?
**A.** The value was “Significant growth inhibition”.

**Q.** What about the “inhibitory activity relative to other analogues” value ([3]; FIG. 5, 0.1-100 μM) of the same compound?
**A.** Its value is “greater inhibitory activity than compounds 205 and 207”.

**Q.** And the “phosphorylation of the p65 subunit of NF-κB” value [4]?
**A.** The value was “reduced phosphorylation of the p65 subunit of NF-κB; also recorded: inhibit phosphory-lation of NF-κB/p65”.

**Q.** And the “phosphorylation of NF-κB/p65” value [4]?
**A.** The value was “inhibit phosphorylation of NF-κB/p65”.

**Q.** With CON(C)C[C@@H]1C(=O)O[C@H]2[C@H]1CC/C(C)=C/CC[C@@]1(C)O[C@@H]21 [JD204, (1aR,7aS,8R,10aS,Z)-8-((Methoxy(methyl)amino)methyl)-1a,5-dimethyl-2,3,6,7,7a,8,10a, 10b-octahydrooxireno[2′,3′:9,10]cyclodeca[1,2-b]furan-9(1aH)-one, fumaric acid salt] as the compound, how does the “phosphorylation of the p65 subunit of NF-κB” value [4] read?
**A.** Its value is “reduced phosphorylation of the p65 subunit of NF-κB; also recorded: inhibit phosphory-lation of NF-κB/p65”.

**Q.** And the “phosphorylation of NF-κB/p65” value [4]?
**A.** Its value is “inhibit phosphorylation of NF-κB/p65”.

**Q.** With C/C1=C\CC[C@@]2(C)O[C@H]2[C@H]2OC(=O)/C(=C\N3CCCCC3)[C@@H]2CC1 [JD205, (1aR,4Z,7aS,8Z,10aS)-1a,5-Dimethyl-8-(piperidin-1-ylmethylene)-2,3,6,7,7a,8,10a,10b-octahydrooxireno[2′,3′:9,10]cyclodeca[1,2-b]furan-9(1aH)-one] as the compound, how does the “growth inhibition at 100 μM” value ([3]; A549, H23, H2122, H1975) read?
**A.** The value was “Significant growth inhibition”.

**Q.** What about the “phosphorylation of the p65 subunit of NF-κB” value [4] of the same compound?
**A.** Its value is “inhibit phosphory-lation of NF-κB/p65”.

**Q.** And the “phosphorylation of NF-κB/p65” value [4]?
**A.** The value was “inhibit phosphorylation of NF-κB/p65”.

**Q.** Which “growth inhibition at 100 μM” value ([3]; A549, H23, H2122, H1975) does the source give for C/C1=C\CC[C@@]2(C)O[C@H]2[C@H]2OC(=O)[C@@H](CN(C)O)[C@@H]2CC1 [JD207, (1aR,7aS,8R,10aS,Z)-8-((Hydroxy(methyl)amino)methyl)-1a,5-dimethyl-2,3,6,7,7a,8,10a, 10b-octahydrooxireno[2′,3′:9,10]cyclodeca[1,2-b]furan-9(1aH)-one, fumaric acid salt] here?
**A.** Its value is “Significant growth inhibition”.

**Q.** Which results are given for C[C@]12CC[C@@H]3c4ccc(O)cc4C[C@@H](CCCCCCCCC[S+]([O-])CCCC(F)(F)C(F)(F)F)[C@H]3[C@@H]1CC[C@@H]2O (stereo partly drawn) [fulvestrant]?
**A.** antiestrogen sensitivity of MCF-7/HER-2 xenografts (MCF-7/HER2 cells): partial sensitivity; growth of MCF-7 parent xenografts [5]: markedly suppressed

**Q.** For CC/C(=C(\c1ccccc1)c1ccc(OCCN(C)C)cc1)c1ccccc1 [tamoxifen], which “response of MCF-7/TMR cells to tamoxifen alone” value [6] is on record?
**A.** The value was “resistant”.

**Q.** And the “antiestrogen sensitivity of MCF-7/HER-2 xenografts” value (MCF-7/HER2 cells)?
**A.** Its value is “insensitive”.

**Q.** And the “growth of MCF-7 parent xenografts” value [5]?
**A.** The value was “markedly suppressed”.

**Q.** Which “proportion/number of ALDH+/CD133+ cancer stem/progenitor cells” value (A549 NSCLC cells) does the source give for estradiol-17b here?
**A.** Its value is “increases the proportion of cancer stem/progenitor cell subsets”.

**Q.** And the “proportion/number of ALDH+/CD133+ cancer stem/progenitor cells” value (A549 NSCLC cells; listed as estrogen)?
**A.** Its value is “modest increase in the numbers of CSC”.
